Legend:
[1] = Residual ratio of coupler in test piece after thermal acceleration, HPLC (Example 9); type: physicochemical; conditions: 60° C., 1 hour, oven under vacuum; relative to test piece before thermal acceleration; HPLC 254 nm; FIG. 5
Method: Using a coating liquid having a composition shown in the following Table 6, a polyether sulfone membrane (membrane thickness: 130 μm) manufactured by Terumo Corporation was coated by Kiss-Coat method, and dried for 18 hours at 37° C. Then, the membrane was punched out to give a circle of φ6 mm as a test piece.
The test piece was placed in an oven under vacuum at 60° C. for 1 hour to be subjected to thermal acceleration. Then, the test piece was subjected to ultrasonic treatment for 10 minutes using 1 ml of an aqueous 60% acetonitrile solution, and extracted. The amount of reagent in the resultant extract was determined by HPLC under such conditions as of eluent: 60% of acetonitrile/50 mM of phosphate buffer (pH 7.5), eluent flow rate: 1 mL/minute, column temperature: 40° C., column: Hydrosphere C18 250×4.6 mm (manufactured by YMC Co., Ltd.), measuring wavelength: 254 nm, and injection volume: 20 μL. According to this method, the residual ratios of 4-AA and CP2 contained in the test piece after thermal acceleration were respectively compared with those of the test pieces before thermal acceleration. It is noted from the results shown in FIG. 5 that the residual ratio of 4-AA is not more than 70%, while the residual ratio of CP2 is approximately 100%. […]

[2] = Time-dependent change in reflection-absorbance of test piece (Example 7); conditions: test piece with MAOS, succinate buffer pH 5.0; human blood, hematocrit 40%, 400 mg/dL blood glucose; FIG. 3
Method: Using a coating liquid having a composition shown in the following Table 5, a polyether sulfone membrane (membrane thickness: 130 μm) manufactured by Terumo Corporation was coated by Kiss-Coat method, and dried for 18 hours at 37° C. Then, the membrane was cut to give a 1-cm square as a test piece.
The evaluation using blood was conducted by fixing the test piece in a reflectance spectrophotometer, adding 1 μL of specimen dropwise onto the test membrane from above, and measuring reflection-absorbance continuously or at the predetermined time.
The time-dependent changes in the reflection-absorbance was measured using as a coupler compound 4-amino antyprine (4-AA), CP1 or CP2, the test piece prepared by the above method, and human blood adjusted to 40% of hematocrit level and 400 mg/dL of blood glucose level as specimen. It is noted from the results shown in FIG. 3 that 15 seconds was required for reflection-absorbance to become steady when using 4-AA, a conventional coupler, while less than 5 seconds was required for reflection-absorbance to become steady when using CP1, and particularly when using CP2, reflection-absorbance reached peak within only about 3 seconds. That is, it was observed that a measuring time was able to be shortened by using the reagent composition of the present invention.

[3] = Maximum concentration of coating liquid for measuring glucose (solubility of coupler)
Method: As an example of a coating liquid composition for measuring glucose, an experiment was conducted to determine a maximum concentration of a coating liquid.
Basic Composition (in 100 mL Water)

SMILES	Residual ratio in test piece after thermal acceleration [1]	Time required for reflection-absorbance to become steady / reach peak [2]	Solubility of coupler ([3]; how many times the amounts of all reagents of the basic composition (100 mL water, TOOS, Triton X-100, citrate pH 5.0) can be increased and still give a uniform solution, coupler equimolar to 4-AA) [times by volume]	Solubility as compared with 4-aminoantipyrine [3]	Solubility of coupler ([3]; pH 5) [times by volume]
Cc1c(N)c(=O)n(-c2ccccc2)n1C [4-AA, 4-aminoantipyrine, reference compound]	not more than 70%	15 s	5	–	–
Cc1c(N)c(=O)n(-c2ccc(C(=O)O)cc2)n1C [CP1, 4-amino-1-(4-carboxyphenyl)-2,3-dimethyl-5-pyrazolone]	–	less than 5 seconds	–	high solubility	8
Cc1c(N)c(=O)n(-c2ccc(S(=O)(=O)O)cc2)n1C [CP2, 4-amino-1-(4-sulfophenyl)-2,3-dimethyl-5-pyrazolone]	approximately 100%	about 3 seconds	–	high solubility	10
Cc1c(N)c(=O)n(-c2cccc(S(=O)(=O)O)c2)n1C [CP6, 4-amino-1-(3-sulfophenyl)-2,3-dimethyl-5-pyrazolone]	–	–	–	high solubility	10

Reference: patent US20100062464A1, “OXIDATIVE CHROMOGENIC COMPOUND OR SALT THEREOF AND PRODUCTION METHOD THEREOF, AND REAGENT COMPOSITION AND TEST INSTRUMENT USING THE SAME” (Terumo Kabushiki Kaisha, priority 2007, published 2010)
